Assay results from patent publication US20160193206A1, “BET-PROTEIN-INHIBITING DIHYDROPYRIDOPYRAZINONES” (BAYER PHARMA AKTIENGESELLSCHAFT, priority 2012, published 2016).

Key:
[1] = target: T1, BRD4 bromo domain 1 [BRD4(1)] (Homo sapiens, UniProt O60885); assay: BRD4(1)/acetylated peptide H4 binding assay (TR-FRET); settings: inhibition of interaction between His6-tagged BRD4(1) (amino acids 67-152) and acetylated histone H4 peptide
T1 construct: N-terminally His6-tagged BRD4(1) (amino acids 67-152); made in house; host or cells: E. coli
Procedure, shortened: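 TR-FRET measured displacement of a biotinylated tetra-acetylated H4 peptide from His6-BRD4(1) (aa 67-152, E. coli-expressed, typically 10 nM) in HEPES pH 7.5 buffer. Compounds were tested at 11 concentrations (0.1 nM–20 μM), with 10 min preincubation, then 1 h at 22 °C and ≥3 h at 4 °C. The 665/620 nm ratio gave IC50 by 4-parameter fit.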

[2] = tested on: MOLM-13 cell line; assay: MOLM-13 cell proliferation assay (alamarBlue); type: cell-based; settings: Homo sapiens, inhibition of proliferation of MOLM-13 cells (acute myeloid leukaemia), 96 hours incubation
Method: In accordance with the invention, the substances were tested for their ability to inhibit the proliferation of the MOLM-13 cell linie (Deutsche Sammlung für Mikroorganismen und Zellkulturen [German Collection of Microorganisms and Cell Cultures], ACC 554; acute myeloid leukaemia). Cell viability was determined by means of the alamarBlue® reagent (Invitrogen) in a Victor X3 Multilabel Reader (Perkin Elmer). The excitation wavelength was 530 nm and the emission wavelength […].
The MOLM-13 cells were sown at a density of 4000 cells/well in 100 μl of growth medium on 96-well microtitre plates. After overnight incubation at 37° C., the fluorescence values were determined (CI values). The plates were then treated with various substance dilutions and incubated at 37° C. for 96 hours. Subsequently, the fluorescence values were determined (CO values). For the data analysis, the CI values were subtracted from the CO values and the results were compared between cells which had been treated with various dilutions of the substance or only with buffer solution. The IC50 values (substance concentration needed for 50% inhibition of cell proliferation) were calculated therefrom.

[3] = target: T2, BRD4 bromo domain 2 [BRD4(2)] (Homo sapiens, UniProt O60885); assay: BRD4(2)/acetylated peptide H4 binding assay (TR-FRET); settings: inhibition of interaction between His6-tagged BRD4(2) (amino acids 357-445) and acetylated histone H4 peptide
T2 construct: N-terminally His6-tagged BRD4(2) (amino acids 357-445); made in house; host or cells: E. coli
Procedure, shortened: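 TR-FRET displacement of biotinylated tetra-acetylated H4 peptide from His6-BRD4(2) (aa 357-445, E. coli-expressed), 100 nM final, in HEPES pH 7.5 buffer; 11 compound concentrations 0.1 nM-20 μM, 10 min preincubation, then 1 h 22 °C plus ≥3 h 4 °C. 665/620 ratio read; IC50 by 4-parameter fit.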

SMILES | IC50 [1] [nM] | IC50 [2] [nM] | IC50 [3] [nM]
COc1cc(C(=O)NC2CCN(C)CC2)ccc1Nc1ccc2c(n1)N(C1CCCC1)[C@H](C)C(=O)N2C [Example 1, 4-{[(3R)-4-Cyclopentyl-1,3-dimethyl-2-oxo-1,2,3,4-tetrahydropyrido[2,3-b]pyrazin-6-yl]amino}-3-methoxy-N-(1-methylpiperidin-4-yl)benzamide] | 260 | 176 | 138
COc1cc(C(=O)NC2CCN(C)CC2)ccc1Nc1ccc2c(n1)N(C(C)C)[C@H](C)C(=O)N2C [Example 2, 4-{[(3R)-1,3-Dimethyl-2-oxo-4-(propan-2-yl)-1,2,3,4-tetrahydropyrido[2,3-b]pyrazin-6-yl]amino}-3-methoxy-N-(1-methylpiperidin-4-yl)benzamide] | 501 | 2360 | 622
COc1cc(C(=O)NCCN2CCOCC2)ccc1Nc1ccc2c(n1)N(C(C)C)[C@H](C)C(=O)N2C [Example 3, 4-{[(3R)-1,3-Dimethyl-2-oxo-4-(propan-2-yl)-1,2,3,4-tetrahydropyrido[2,3-b]pyrazin-6-yl]amino}-3-methoxy-N-[2-(morpholin-4-yl)ethyl]benzamide] | 131 | 630 | 472
COc1cc(C(=O)NCCN(C)C)ccc1Nc1ccc2c(n1)N(C(C)C)[C@H](C)C(=O)N2C [Example 5, N-[2-(Dimethylamino)ethyl]-4-{[(3R)-1,3-dimethyl-2-oxo-4-(propan-2-yl)-1,2,3,4-tetrahydropyrido[2,3-b]pyrazin-6-yl]amino}-3-methoxybenzamide] | 93 | 503 | –
COc1cc(C(=O)NC2CCCC2)ccc1Nc1ccc2c(n1)N(C(C)C)[C@H](C)C(=O)N2C [Example 6, N-Cyclopentyl-4-{[(3R)-1,3-dimethyl-2-oxo-4-(propan-2-yl)-1,2,3,4-tetrahydropyrido[2,3-b]pyrazin-6-yl]amino}-3-methoxybenzamide] | 255 | 762 | –
C[C@@H]1C(=O)N(C)c2ccc(Nc3ccc(C(=O)N4CC5(CCS5(=O)=O)C4)cc3)nc2N1C1CCCC1 [Example 7, (3R)-4-Cyclopentyl-6-({4-[(1,1-dioxido-1-thia-6-azaspiro[3.3]hept-6-yl)carbonyl]phenyl}amino)-1,3-dimethyl-3,4-dihydropyrido[2,3-b]pyrazin-2(1H)-one] | 91 | 377 | –
COc1cc(C(=O)NCCN(C)C)ccc1Nc1ccc2c(n1)N(C1CCOCC1)[C@H](C)C(=O)N2C [Example 46, N-[2-(Dimethyalmino)ethyl]-4-{[(3R)-1,3-dimethyl-2-oxo-4-(tetrahydro-2H-pyran-4-yl)-1,2,3,4-tetrahydropyrido[2,3-b]pyrazin-6-yl]amino}-3-methoxybenzamide] | 52 | 461 | –
C[C@@H]1C(=O)N(C)c2ccc(Nc3ccc(C(=O)N4CC5(COC5)C4)cc3)nc2N1C1CCCCCC1 [Example 93, (3R)-4-Cycloheptyl-1,3-dimethyl-6-{[4-(2-oxa-6-azaspiro[3.3]hept-6-ylcarbonyl)phenyl]amino}-3,4-dihydropyrido[2,3-b]pyrazin-2(1H)-one] | 317 | – | 90
C[C@@H]1C(=O)N(C)c2ccc(Nc3ccc(S(=O)(=O)N(C)C)cc3)nc2N1Cc1ccccc1 [Example 94, 4-{[(3R)-4-Benzyl-1,3-dimethyl-2-oxo-1,2,3,4-tetrahydropyrido[2,3-b]pyrazin-6-yl]amino}-N,N-dimethylbenzenesulphonamide] | 156 | – | 111
C[C@@H]1C(=O)N(C)c2ccc(Nc3ccc(S(=O)(=O)N(C)C)cc3)nc2N1C1CCCCCC1 [Example 95, 4-{[(3R)-4-Cycloheptyl-1,3-dimethyl-2-oxo-1,2,3,4-tetrahydropyrido[2,3-b]pyrazin-6-yl]amino}-N,N-dimethylbenzenesulphonamide] | 589 | – | 126
CC(C)N1c2nc(Nc3ccc(C(=O)N[C@H]4CC[C@H](N5CCN(CC6CC6)CC5)CC4)cc3)ccc2N(C)C(=O)[C@H]1C [Example 96, N-{trans-4-[4-(Cyclopropylmethyl)piperazin-1-yl]cyclohexyl}-4-{[(3R)-1,3-dimethyl-2-oxo-4-(propan-2-yl)-1,2,3,4-tetrahydropyrido[2,3-b]pyrazin-6-yl]amino}benzamide] | 438 | – | 344
COc1cc(C(=O)NC2CCC(O)CC2)ccc1Nc1ccc2c(n1)N(C(C)C)[C@H](C)C(=O)N2C (stereo partly drawn) [Example 97, 4-{[(3R)-1,3-Dimethyl-2-oxo-4-(propan-2-yl)-1,2,3,4-tetrahydropyrido[2,3-b]pyrazin-6-yl]amino}-N-(4-hydroxycyclohexyl)-3-methoxybenzamide] | 261 | – | 117
CC(C)N1c2nc(Nc3ccc(C(=O)NC4CCN(C)CC4)cc3)ccc2N(C)C(=O)[C@H]1C [Example 98, 4-{[(3R)-1,3-Dimethyl-2-oxo-4-(propan-2-yl)-1,2,3,4-tetrahydropyrido[2,3-b]pyrazin-6-yl]amino}-N-(1-methylpiperidin-4-yl)benzamide] | 281 | – | 98
COCCN1c2nc(Nc3ccc(C(=O)NC4CCN(C)CC4)cc3)ccc2N(C)C(=O)C1C (stereo not drawn) [Example 104, 4-{[4-(2-Methoxyethyl)-1,3-dimethyl-2-oxo-1,2,3,4-tetrahydropyrido[2,3-b]pyrazin-6-yl]amino}-N-(1-methylpiperidin-4-yl)benzamide] | 621 | – | 217
COCCN1c2nc(Nc3ccc(C(=O)N[C@H]4CC[C@H](N5CCN(CC6CC6)CC5)CC4)cc3)ccc2N(C)C(=O)C1C (stereo partly drawn) [Example 105, N-{trans-4-[4-(Cyclopropylmethyl)piperazin-1-yl]cyclohexyl}-4-{[4-(2-methoxyethyl)-1,3-dimethyl-2-oxo-1,2,3,4-tetrahydropyrido[2,3-b]pyrazin-6-yl]amino}benzamide] | 452 | – | 187
C[C@@H]1C(=O)N(C)c2ccc(Nc3ccc(S(=O)(=O)N(C)C)cc3)nc2N1C1CCN(C(=O)OC(C)(C)C)CC1 [Example 106, tert-Butyl 4-[(3R)-6-{[4-(dimethylsulphamoyl)phenyl]amino}-1,3-dimethyl-2-oxo-2,3-dihydropyrido[2,3-b]pyrazin-4(1H)-yl]piperidine-1-carbonate] | 632 | – | 463
C[C@@H]1C(=O)N(C)c2ccc(Nc3ccc(S(=O)(=O)NC4CCN(C)CC4)cc3)nc2N1c1ccccc1 [Example 108, 4-{[(3R)-1,3-Dimethyl-2-oxo-4-phenyl-1,2,3,4-tetrahydropyrido[2,3-b]pyrazin-6-yl]amino}-N-(1-methylpiperidin-4-yl)benzenesulphonamide] | 63 | – | 239
C[C@@H]1C(=O)N(C)c2ccc(Nc3ccc(S(=O)(=O)N[C@H]4CC[C@H](N5CCN(CC6CC6)CC5)CC4)cc3)nc2N1Cc1ccccc1 [Example 109, 4-{[(3R)-4-Benzyl-1,3-dimethyl-2-oxo-1,2,3,4-tetrahydropyrido[2,3-b]pyrazin-6-yl]amino}-N-{trans-4-[4-(cyclopropylmethyl)piperazin-1-yl]cyclohexyl}benzenesulphonamide] | 36 | – | 78
COc1cc(S(=O)(=O)NC2CCN(C)CC2)ccc1Nc1ccc2c(n1)N(C1CCOCC1)[C@H](C)C(=O)N2C [Example 110, 4-{[(3R)-1,3-Dimethyl-2-oxo-4-(tetrahydro-2H-pyran-4-yl)-1,2,3,4-tetrahydropyrido[2,3-b]pyrazin-6-yl]amino}-3-methoxy-N-(1-methylpiperidin-4-yl)benzenesulphonamide] | 38 | – | 55
COc1cc(S(=O)(=O)N[C@H]2CC[C@H](N3CCN(CC4CC4)CC3)CC2)ccc1Nc1ccc2c(n1)N(C1CCOCC1)[C@H](C)C(=O)N2C [Example 111, N-{trans-4-[4-(Cyclopropylmethyl)piperazin-1-yl]cyclohexyl}-4-{[(3R)-1,3-dimethyl-2-oxo-4-(tetrahydro-2H-pyran-4-yl)-1,2,3,4-tetrahydropyrido[2,3-b]pyrazin-6-yl]amino}-3-methoxybenzenesulphonamide] | 29 | – | 130
COc1cc(S(=O)(=O)N2CCN(C)CC2)ccc1Nc1ccc2c(n1)N(C1CCOCC1)[C@H](C)C(=O)N2C [Example 112, (3R)-6-({2-Methoxy-4-[(4-methylpiperazin-1-yl)sulphonyl]phenyl}amino)-1,3-dimethyl-4-(tetrahydro-2H-pyran-4-yl)-3,4-dihydropyrido[2,3-b]pyrazin-2(1H)-one] | 106 | – | 86
